From patent US5958890A, “Tricyclic compounds useful for inhibition of G-protein function and for treatment of proliferative diseases” (Schering Corporation, priority 1997, dated 1999)

Tests used:
[1] = molecular target: farnesyl protein transferase (Homo sapiens, UniProt P49354+P49356); experiment: FPT inhibition, in vitro enzyme assay (procedure of WO 95/10516); assay type: biochemical
COS Cell = COS Cell IC50 (Cell-Based Assay, procedure of WO 95/10516)
Protocol: FPT IC50 (inhibition of farnesyl protein transferase, in vitro enzyme assay) and COS Cell IC50 (Cell-Based Assay) were determined following the assay procedures described in WO 95/10516, published Apr. 20, 1995. GGPT IC50 (inhibition of geranylgeranyl protein transferase, in vitro enzyme assay), Cell Mat Assay, and anti-tumor activity (in vivo anti-tumor studies) could be determined by the assay procedures described in WO 95/10516. The disclosure of WO 95/10516 is incorporated herein by reference thereto.

Compound	IC50 [1] [nM]	IC50 (COS Cell) [nM]
NC(=O)N1CC[C@H](CC(=O)N2CCC(C3c4ncc(Br)cc4CCc4cc(Cl)cc(Cl)c43)CC2)C1 (single isomer, unassigned) [Example 1]	0.0386	–
NC(=O)N1CC[C@@H](CC(=O)N2CCC(C3c4ncc(Br)cc4CCc4cc(Cl)cc(Cl)c43)CC2)C1 (single isomer, unassigned) [Example 2]	–	0.03
